This is an account of results in US8981106B2, “Pyrimidinecarboxamides as CXCR2 modulators” (Syntrix Biosystems, Inc., priority 2009, dated 2015).

What is called IC50 is the concentration that gives 50% inhibition. Broadly, the EC50 is the concentration at which the effect is half-maximal.

Values joined by “and” are separate entries in the source; they are usually repeats but may differ in a detail not shown here. Identical values can stand only once.

T1 sequence (P25025 whole entry): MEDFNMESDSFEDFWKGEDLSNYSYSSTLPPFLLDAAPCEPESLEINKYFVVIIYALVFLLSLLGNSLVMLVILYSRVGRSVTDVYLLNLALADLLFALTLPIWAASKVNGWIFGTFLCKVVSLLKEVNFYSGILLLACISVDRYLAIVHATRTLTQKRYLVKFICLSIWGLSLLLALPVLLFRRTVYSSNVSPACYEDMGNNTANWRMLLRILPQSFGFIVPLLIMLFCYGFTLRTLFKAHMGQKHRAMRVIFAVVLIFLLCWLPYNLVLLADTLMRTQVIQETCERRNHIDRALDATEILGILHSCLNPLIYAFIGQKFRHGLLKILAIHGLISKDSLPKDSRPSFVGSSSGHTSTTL

The first assay has as its target T1, CXCR2 (Homo sapiens (Human), UniProt P25025). In words: Inhibition of GROα-mediated intracellular calcium release in human neutrophils (FLIPR-3 Ca2+ mobilization). Format: cell-based. To be noted: human neutrophils, 25 nM GROα; read-out: IC50. The method, then: (§1) In Tables 1-5, the IC50 or EC50 values were determined using the following assay. This assay measures intracellular calcium release via fluorescence as an indication of CXCR2 receptor activation by the physiologic agonist GROα. The assay is a Ca^2+ mobilization assay that measures changes in intracellular Ca^2+ with a FlexStation II scanning fluorometer using a FLIPR-3 Calcium Assay Kit (Molecular Devices, Sunnyvale, Calif.). The procedure is as follows:
1. Human neutrophils were suspended in HBSS^− (without Ca^2+ and Mg^2+) containing 10 mM HEPES and FLIPR Calcium 3 dye (3.1×10^7 cells in total volume 1.7 mL).
2. […] As controls, 2 μL of DMSO (1% final concentration) were added to other 2 tubes.
3. Cells were incubated for 30 min at 37° C.
4. After dye loading, tubes were centrifuged at 6,000 rpm for 1 min, supernatant was removed and cell pellet was re-suspended in 200 μL of HBSS^+ (with Ca^2+ and Mg^2+) containing 10 mM HEPES.
5. The compound or DMSO (control) was added again at the same concentrations that were used during cell loading.
6. The cell suspension was aliquoted into a 96-well Reading Plate (Corning) in a volume of 90 μL (10^5 cells/well). The Compound Plate contained physiologic agonist (GROα in HBSS^−) or HBSS^− (control).
(§2) 9. The maximum change in fluorescence, expressed in arbitrary units over baseline (Max-Min) was used to determine the GROα response. […] Therapeutic Activity
Briefly, human neutrophils were suspended in HBSS^− (without Ca^2+ and Mg^2+) containing 10 mM HEPES and FLIPR Calcium 3 dye (3.1×10^7 cells in total volume 1.7 mL). […] As controls, 2 μL of DMSO (1% final concentration) were added to 2 other tubes. Cells were incubated for 30 min at 37° C. After dye loading, tubes were centrifuged at 6,000 rpm for 1 min, supernatant was removed and the cell pellet was re-suspended in 200 μL of HBSS^+ (with Ca^2+ and Mg^2+) containing 10 mM HEPES. The test compound or DMSO (control) was added again at the same concentrations that were used during cell loading. The cell suspension was aliquoted into a 96-well Reading Plate (Corning) in a volume of 90 μL (10^5 cells/well). The Compound Plate contained agonist (GROα in HBSS^−) or HBSS^− (control).
(§3) The maximum change in fluorescence, expressed in arbitrary units over baseline (Max-Min), was used to determine the GROα response.
Background: Calcium assays in cells follow changes in intracellular calcium, usually with a dye or a luminescent sensor.
As for `O=C(Nc1ccc(F)cc1)c1ccc(SCc2cc(OC(F)(F)F)ccc2O)nc1` [Compound 14, 6-(2-hydroxy-5-trifluoromethoxy-benzylsulfanyl)-N-(4-fluoro-phenyl)-nicotinamide], the IC50 came out at 28 ± 6 nM.

On to `Cc1c(C(=O)CSc2ccc(C(=O)Nc3ccc(F)cc3)cn2)sc2ccccc12` [Compound 129], for which the IC50 was > 10000 nM.

For the compound `Cc1ccc2sc(C(=O)CSc3ccc(C(=O)Nc4ccc(F)cc4)cn3)c(C)c2c1` [Compound 130], the IC50 is > 10000 nM.

As to `Cc1onc(-c2ccccc2)c1C(=O)CSc1ccc(C(=O)Nc2ccc(F)cc2)cn1` [Compound 131], the IC50 is > 5000 nM.

As to `Cc1c(C(=O)CSc2ccc(C(=O)Nc3ccc(F)cc3)cn2)sc2ccc(Cl)cc12` [Compound 132], the IC50 was 780 ± 510 nM.

As for `O=C(Nc1ccc(F)cc1)c1ccc(SCC(=O)c2cc(-c3ccccc3)no2)nc1` [Compound 133], the IC50 is > 5000 nM.

For `O=C(Nc1ccc(F)cc1)c1ccc(SCC(=O)c2cc(-c3ccc(Cl)cc3)no2)nc1` [Compound 134], the IC50 was > 10000 nM.

Take `O=C(Nc1ccc(F)cc1)c1ccc(SCC(=O)c2cc(-c3ccc(Cl)c(Cl)c3)no2)nc1` [Compound 135]: the IC50 was > 10000 nM.

For `O=C(Nc1ccc(F)cc1)c1ccc(SCC(=O)c2cc(-c3ccc(Cl)cc3Cl)no2)nc1` [Compound 136], the half-maximal inhibitory concentration (IC50) was > 5000 nM.

On to `O=C(Nc1ccc(F)cc1)c1ccc(SCC(=O)c2cc(C(=O)O)no2)nc1` [Compound 138], for which the IC50 came out at 81 ± 10 nM.

Turning to `O=C(CSc1ccc(C(=O)Nc2ccc(F)cc2)cn1)c1ccc2c(c1)OCO2` [Compound 139], the IC50 was > 5000 nM.

As for `O=C(CSc1ccc(C(=O)Nc2ccc(F)cc2)cn1)c1ccc2c(c1)OCCO2` [Compound 140], the IC50 turned out to be 194 ± 52 nM.

With `O=C(Nc1ccc(F)cc1)c1ccc(SCC(=O)c2cccc3c2OCCO3)nc1` [Compound 141], the IC50 was > 5000 nM.

Take `O=C(CSc1ccc(C(=O)Nc2ccc(F)cc2)cn1)c1ccc2c(c1)OCCCO2` [Compound 142]: the IC50 was > 5000 nM.

In the case of `O=C(Nc1ccc(F)cc1)c1ccc(SCC(=O)c2cccc3c2OCCCO3)nc1` [Compound 143], the IC50 was > 10000 nM.

As to `O=C(Nc1ccc(F)cc1)c1ccc(SCC(=O)c2ccsn2)nc1` [Compound 144], the half-maximal inhibitory concentration (IC50) was 2240 ± 710 nM.

`O=C(Nc1ccc(F)cc1)c1ccc(SCC(=O)c2nc3ccccc3s2)nc1` [Compound 145]: the IC50 is > 5000 nM.

Regarding `Cc1nc(-c2ccccc2)sc1C(=O)CSc1ccc(C(=O)Nc2ccc(F)cc2)cn1` [Compound 146], the IC50 is > 10000 nM.

For the compound `Cc1nc(-c2ccc(Cl)cc2)sc1C(=O)CSc1ccc(C(=O)Nc2ccc(F)cc2)cn1` [Compound 147], the IC50 was > 5000 nM.

Turning to `Cc1nc(-c2ccc(C(F)(F)F)cc2)sc1C(=O)CSc1ccc(C(=O)Nc2ccc(F)cc2)cn1` [Compound 148], the half-inhibitory concentration (IC50) was > 5000 nM.

`Cc1nc(-c2cnccn2)sc1C(=O)CSc1ccc(C(=O)Nc2ccc(F)cc2)cn1` [Compound 149]: the half-inhibitory concentration (IC50) was > 10000 nM.

Turning to `Cc1c(C(=O)CSc2ccc(C(=O)Nc3ccc(F)cc3)cn2)cnn1-c1ccccc1` [Compound 150], the IC50 is > 10000 nM.

On to `Cn1c(C(=O)CSc2ccc(C(=O)Nc3ccc(F)cc3)cn2)nc2ccccc21` [Compound 151], for which the IC50 turned out to be 703 ± 291 nM.

`O=C(Nc1ccc(F)cc1)c1ccc(SCC(=O)c2cc(Br)cc3c2OCC3)nc1` [Compound 152]: the IC50 turned out to be 529 ± 440 nM.

On to `O=C(Nc1ccc(F)cc1)c1ccc(SCC(=O)C(c2ccccc2)c2ccccc2)nc1` [Compound 153], for which the IC50 was determined as 1230 nM.

Consider `CN(C(=O)c1ccc(SCc2ccccc2B(O)O)nc1)c1ccc(F)cc1` [Compound 154], for which the IC50 was > 5000 nM.

Regarding `O=C(c1ccc(SCc2ccccc2B(O)O)nc1)N(Cc1ccccn1)c1ccc(F)cc1` [Compound 155], the IC50 was 78 ± 18 nM.

With `O=C(c1ccc(SCc2ccccc2B(O)O)nc1)N(CC1CCCCN1)c1ccc(F)cc1` (stereo not drawn) [Compound 156], the concentration for half-maximal inhibition (IC50) is > 5000 nM.

As to `O=C(c1ccc(SCc2ccccc2B(O)O)nc1)N(Cc1ccncc1)c1ccc(F)cc1` [Compound 157], the IC50 was determined as 890 ± 670 nM.

Consider `O=C(O)CN(C(=O)c1ccc(SCc2ccccc2B(O)O)nc1)c1ccc(F)cc1` [Compound 158], for which the IC50 came out at 1990 ± 460 nM.

Regarding `O=C(Nc1ccc(OC(F)(F)F)cc1)c1ccc(SCc2ccccc2B(O)O)nc1` [Compound 159], the IC50 is 278 ± 148 nM.

Turning to `O=C(Nc1ccc(-c2nn[nH]n2)cc1)c1ccc(SCc2ccccc2B(O)O)nc1` [Compound 161], the IC50 was > 10000 nM.

As to `O=C(Nc1ccncc1)c1ccc(SCc2ccccc2B(O)O)nc1` [Compound 162], the IC50 was 520 ± 263 nM.

`O=C(Nc1ccc(O)cc1)c1ccc(SCc2ccccc2B(O)O)nc1` [Compound 163]: the IC50 was found to be 105 ± 44 nM.

On to `O=C(Nc1ccc(F)cn1)c1ccc(SCc2ccccc2B(O)O)nc1` [Compound 164], for which the IC50 came to 294 ± 119 nM.

For `O=C(Nc1ccc(F)cc1O)c1ccc(SCc2ccccc2B(O)O)nc1` [Compound 165], the IC50 came out at 37 ± 7 nM.

Turning to `O=C(Nc1ccc(F)c(C(=O)O)c1)c1ccc(SCc2ccccc2B(O)O)nc1` [Compound 166], the half-maximal inhibitory concentration (IC50) is > 10000 nM.

Staying with this assay, now noted: read-out: IC50.
In the case of `O=C(O)c1ccc(NC(=O)c2ccc(SCc3ccccc3B(O)O)nc2)cc1` [Compound 160], the half-inhibitory concentration (IC50) is > 10000 nM.

The target in another assay is T1, CXCR2. In words: Agonist activity: intracellular calcium release in human neutrophils in the absence of GROα. The conditions noted are these: human neutrophils, agonist calcium release. Format: cell-based. As to the method: as §1, §2, §3
Intracellular calcium release is a hallmark of CXCR2 activation by endogenous agonists, such as GROα and IL-8.
In the case of `O=C(Nc1ccc(F)cc1)c1ccc(SCc2ccccc2O)nc1` [Compound 13], the EC50 came out at 2400 nM.

Regarding `O=C(Nc1ccc(F)cc1)c1ccc(SCc2cc(OC(F)(F)F)ccc2O)nc1` [Compound 14, 6-(2-hydroxy-5-trifluoromethoxy-benzylsulfanyl)-N-(4-fluoro-phenyl)-nicotinamide], the EC50 was 1800 nM and 1810 nM.

Still in this assay, the particulars now being: relative to the response to 25 nM GROα.
In the case of `O=C(Nc1ccc(F)cc1)c1ccc(SCc2ccccc2O)nc1` [Compound 13], the “Magnitude of Agonist Response (% of GROα only Control)” value was found to be 60%.

As to `O=C(Nc1ccc(F)cc1)c1ccc(SCc2cc(OC(F)(F)F)ccc2O)nc1` [Compound 14, 6-(2-hydroxy-5-trifluoromethoxy-benzylsulfanyl)-N-(4-fluoro-phenyl)-nicotinamide], the “Magnitude of Agonist Response (% of GROα only Control)” value is on record as 15%.
